Data published in PubChem BioAssay (NCI).
Values joined by “and” are separate entries in the source; they are usually repeats but may differ in a detail not shown here. Equal entries are not always repeated.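 1) Cells in 96-well plates. 2) Compound, 48 h, 5 concentrations. 3) Linear interpolation between surrounding doses. 4) Unreached endpoint = highest concentration. Here, GI50 denotes the concentration required for 50% inhibition of growth. TGI: total growth inhibition.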

tested on: MOLT-4 leukemia; experiment: NCI anticancer screen, dose series, 48 h

| SMILES | GI50 | TGI |
| --- | --- | --- |
| CC1(COc2ccc3c(c2)ncn3-c2ccc3cccc(N4CCC(N)CC4)c3n2)COC1 | 1.56 µM and 1.51 µM | 5.71 µM and 5.97 µM |
| O=C(/C=C/c1ccc(O)cc1)c1ccc(O)cc1 | – | 82.3 µM |
| S=c1sc2c(n1-c1ccccc1)NC=NC2S (stereo not drawn) | – | > 100 µM |
| CCOC(=O)C1=C(C)N(c2ccc(F)cc2F)[C@]2(C#N)C(O)=C(Cl)C(Cl)=C(O)[C@]12C#N | > 100 µM | > 100 µM |
| Cc1csc(-c2nnc(Nc3ccc(Oc4ncccc4-c4ccnc(N)n4)cc3)c3ccccc23)c1 | 3.34 µM | > 100 µM |
| CCCCCCCCCCn1cc[n+](C)c1 | 2.9 µM | 29 µM |
| O=C(CCCSc1nc(-c2ccccc2)cc(-c2ccccc2)n1)NO | 1.1 µM | 10.2 µM |
| c1ccc(NCn2cnc3ccccc32)cc1 | – | > 100 µM |
| CC1SC(c2ccc(F)cc2)N(NC(=O)C(O)c2ccccc2)C1=O (stereo not drawn) | > 100 µM | > 100 µM |
| N#C/C(=C\c1cccc(Cl)c1Cl)c1ccccc1 | – | > 100 µM |
| COCCOc1ccc(-c2nc3ccc(-c4nc5ccc(N6CCN(C)CC6)cc5[nH]4)cc3[nH]2)cc1 | 2.81 µM | > 100 µM |
| Nc1n[nH]c2cccc(C#Cc3cccc(C(=O)Nc4ccc(CN5CCOCC5)c(C(F)(F)F)c4)c3)c12 | 1.4 µM | 4.24 µM |
| COc1ccc(-c2cn[nH]c2-c2cc(OC)c(OC)c(OC)c2)cc1 | 0.0457 µM | 4.21 µM |
| N[C@@H]1CCCC[C@@H]1N.O=P([O-])([O-])CN(CCN(CP(=O)([O-])[O-])CP(=O)([O-])[O-])CP(=O)([O-])[O-].[Pt+2] | > 25 µM | > 25 µM |
| CCC(=C/[C@H](C)C/C=C/C(C)=C/[C@@H](C)C(=O)[C@@H](C)[C@H](O)[C@@H](C)CC)/C=C/[C@H]1OC(=O)C=C[C@@H]1C | < 0.01 µM | 0.114 µM |
| COc1ccc(OC)c(N2CC(N)C2=O)c1 (stereo not drawn) | – | > 100 µM |
| Nc1ccccc1SC(CC(=O)c1ccccc1)c1cccc([N+](=O)[O-])c1 (stereo not drawn) | 17.6 µM | 50.5 µM |
| O=C1CCCCN1c1ccccc1C#C/C=C\C#Cc1ccccc1C(F)(F)F | 1.59 µM | 6.96 µM |
| O=C(/C=C/c1ccc([N+](=O)[O-])cc1)c1ccc(NCc2nc3ccccc3[nH]2)cc1 | – | 10.2 µM |
| CN1CC[C@@H](NC(=O)Nc2ccc(C#N)cc2)C[C@@H]1c1nc2ccccc2[nH]1 | 55.6 µM | > 100 µM |
| CN(C)CC1CC/C(=C\c2ccc(O)cc2)C1=O (stereo not drawn) | – | 5.29 µM |
| O=c1ccc2ccccc2cc1[O-].O=c1ccc2ccccc2cc1[O-].[O]=[U+2]=[O] | 4.71 µM | 46.2 µM |
| Cc1ccc(-n2c3nc(=O)[nH]c(=O)c-3cc3cc([N+](=O)[O-])ccc32)cc1 | 6.61 µM | > 100 µM |
| O=C1NC(=NC(CO)Cc2ccccc2)S/C1=C\c1ccc2ncccc2c1 (stereo not drawn) | 12.2 µM and 7.45 µM | > 25 µM and 18.7 µM |
| COC(=O)C(CCCN1C(=O)c2ccccc2C1=O)C(=O)OC | – | > 100 µM |
| COc1cc(/C(C#N)=C/c2nc3c(N4CCOCC4)nc(Cl)nc3n2C)cc(OC)c1OC | < 0.0184 µM | 27.5 µM |
| Cc1nnc(NC(=O)c2nc(S(=O)(=O)Cc3ccc(F)cc3)ncc2Cl)s1 | 2.02 µM | 4.38 µM |
| CC(C)[C@@H]1C=C2CC[C@H]3[C@](C)(CN)CCC[C@]3(C)[C@H]2CC1 | 2.35 µM | 6.03 µM |

tested on: LOX IMVI melanoma; experiment: NCI anticancer screen, dose series, 48 h

| SMILES | GI50 | TGI |
| --- | --- | --- |
| CC1(COc2ccc3c(c2)ncn3-c2ccc3cccc(N4CCC(N)CC4)c3n2)COC1 | 1.4 µM and 1.16 µM | 3.97 µM and > 10 µM |
| O=C(/C=C/c1ccc(O)cc1)c1ccc(O)cc1 | – | 28.1 µM |
| S=c1sc2c(n1-c1ccccc1)NC=NC2S (stereo not drawn) | – | > 100 µM |
| CCOC(=O)C1=C(C)N(c2ccc(F)cc2F)[C@]2(C#N)C(O)=C(Cl)C(Cl)=C(O)[C@]12C#N | > 100 µM | > 100 µM |
| Cc1csc(-c2nnc(Nc3ccc(Oc4ncccc4-c4ccnc(N)n4)cc3)c3ccccc23)c1 | 0.433 µM | > 100 µM |
| CCCCCCCCCCn1cc[n+](C)c1 | 1.79 µM | 13.2 µM |
| O=C(CCCSc1nc(-c2ccccc2)cc(-c2ccccc2)n1)NO | 2.26 µM | 5.47 µM |
| c1ccc(NCn2cnc3ccccc32)cc1 | – | > 100 µM |
| CC1SC(c2ccc(F)cc2)N(NC(=O)C(O)c2ccccc2)C1=O (stereo not drawn) | > 100 µM | > 100 µM |
| N#C/C(=C\c1cccc(Cl)c1Cl)c1ccccc1 | – | > 100 µM |
| COCCOc1ccc(-c2nc3ccc(-c4nc5ccc(N6CCN(C)CC6)cc5[nH]4)cc3[nH]2)cc1 | 0.851 µM | 2.83 µM |
| Nc1n[nH]c2cccc(C#Cc3cccc(C(=O)Nc4ccc(CN5CCOCC5)c(C(F)(F)F)c4)c3)c12 | 1.67 µM | 4.02 µM |
| COc1ccc(-c2cn[nH]c2-c2cc(OC)c(OC)c(OC)c2)cc1 | 0.123 µM | 20.7 µM |
| N[C@@H]1CCCC[C@@H]1N.O=P([O-])([O-])CN(CCN(CP(=O)([O-])[O-])CP(=O)([O-])[O-])CP(=O)([O-])[O-].[Pt+2] | > 25 µM | > 25 µM |
| CCC(=C/[C@H](C)C/C=C/C(C)=C/[C@@H](C)C(=O)[C@@H](C)[C@H](O)[C@@H](C)CC)/C=C/[C@H]1OC(=O)C=C[C@@H]1C | < 0.01 µM | 1.23 µM |
| COc1ccc(OC)c(N2CC(N)C2=O)c1 (stereo not drawn) | – | > 100 µM |
| Nc1ccccc1SC(CC(=O)c1ccccc1)c1cccc([N+](=O)[O-])c1 (stereo not drawn) | 1.99 µM | 4.07 µM |
| O=C1CCCCN1c1ccccc1C#C/C=C\C#Cc1ccccc1C(F)(F)F | 1.84 µM | 8.87 µM |
| O=C(/C=C/c1ccc([N+](=O)[O-])cc1)c1ccc(NCc2nc3ccccc3[nH]2)cc1 | – | 6.54 µM |
| CN1CC[C@@H](NC(=O)Nc2ccc(C#N)cc2)C[C@@H]1c1nc2ccccc2[nH]1 | > 42.5 µM | > 59.5 µM |
| CN(C)CC1CC/C(=C\c2ccc(O)cc2)C1=O (stereo not drawn) | – | 5.51 µM |
| O=c1ccc2ccccc2cc1[O-].O=c1ccc2ccccc2cc1[O-].[O]=[U+2]=[O] | 14.1 µM | > 100 µM |
| Cc1ccc(-n2c3nc(=O)[nH]c(=O)c-3cc3cc([N+](=O)[O-])ccc32)cc1 | 4.77 µM | 21.5 µM |
| O=C1NC(=NC(CO)Cc2ccccc2)S/C1=C\c1ccc2ncccc2c1 (stereo not drawn) | 16.5 µM and 3.85 µM | > 25 µM |
| COC(=O)C(CCCN1C(=O)c2ccccc2C1=O)C(=O)OC | – | > 100 µM |
| COc1cc(/C(C#N)=C/c2nc3c(N4CCOCC4)nc(Cl)nc3n2C)cc(OC)c1OC | < 0.01 µM | 4.17 µM |
| Cc1nnc(NC(=O)c2nc(S(=O)(=O)Cc3ccc(F)cc3)ncc2Cl)s1 | 1.5 µM | 2.96 µM |
| CC(C)[C@@H]1C=C2CC[C@H]3[C@](C)(CN)CCC[C@]3(C)[C@H]2CC1 | 1.52 µM | 2.85 µM |

tested on: KM12 colon; experiment: NCI anticancer screen, dose series, 48 h

| SMILES | GI50 | TGI |
| --- | --- | --- |
| CC1(COc2ccc3c(c2)ncn3-c2ccc3cccc(N4CCC(N)CC4)c3n2)COC1 | 0.0519 µM and 0.118 µM | 5.74 µM and > 10 µM |
| O=C(/C=C/c1ccc(O)cc1)c1ccc(O)cc1 | – | 19.8 µM |
| S=c1sc2c(n1-c1ccccc1)NC=NC2S (stereo not drawn) | – | > 100 µM |
| CCOC(=O)C1=C(C)N(c2ccc(F)cc2F)[C@]2(C#N)C(O)=C(Cl)C(Cl)=C(O)[C@]12C#N | > 100 µM | > 100 µM |
| Cc1csc(-c2nnc(Nc3ccc(Oc4ncccc4-c4ccnc(N)n4)cc3)c3ccccc23)c1 | 2.41 µM | > 100 µM |
| CCCCCCCCCCn1cc[n+](C)c1 | 1.57 µM | 5.75 µM |
| O=C(CCCSc1nc(-c2ccccc2)cc(-c2ccccc2)n1)NO | 2.64 µM | 12.9 µM |
| c1ccc(NCn2cnc3ccccc32)cc1 | – | > 100 µM |
| CC1SC(c2ccc(F)cc2)N(NC(=O)C(O)c2ccccc2)C1=O (stereo not drawn) | > 100 µM | > 100 µM |
| N#C/C(=C\c1cccc(Cl)c1Cl)c1ccccc1 | – | > 100 µM |
| COCCOc1ccc(-c2nc3ccc(-c4nc5ccc(N6CCN(C)CC6)cc5[nH]4)cc3[nH]2)cc1 | 2.58 µM | 14.3 µM |
| Nc1n[nH]c2cccc(C#Cc3cccc(C(=O)Nc4ccc(CN5CCOCC5)c(C(F)(F)F)c4)c3)c12 | 2.81 µM | 9.65 µM |
| COc1ccc(-c2cn[nH]c2-c2cc(OC)c(OC)c(OC)c2)cc1 | 0.0252 µM | 12 µM |
